Data published in US12404295B2, “(Hetero)aryl-methyl-thio-beta-D-galactopyranoside derivatives” (Idorsia Pharmaceuticals Ltd, priority 2019, dated 2025).
Where two headings read alike, the source gives them in different places.

Key:
[1] = target: human Gal-1 (hGal-1) (Homo sapiens (Human), UniProt P09382); assay: competitive binding assay: biotinylated hGal-1 binding to microplate-adsorbed asialofetuin (ASF); conditions: Table 15; read-out: IC50 (Galectin-1 inhibition)
Summary of the method: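 Spectrophotometric competition readout: after compound and biotinylated hGal-1 (300-1000 ng/mL) sit 3 h at 4° C on adsorbed asialofetuin, streptavidin-peroxidase (1 h, 4° C) and ABTS reveal residual binding. Reported IC50 values are means of repeat runs.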

[2] = target: human Gal-3 (hGal-3) (Homo sapiens (Human), UniProt P17931); assay: competitive binding assay: biotinylated hGal-3 binding to microplate-adsorbed asialofetuin (ASF)
Chain of human Gal-3 (hGal-3) (P17931 whole entry): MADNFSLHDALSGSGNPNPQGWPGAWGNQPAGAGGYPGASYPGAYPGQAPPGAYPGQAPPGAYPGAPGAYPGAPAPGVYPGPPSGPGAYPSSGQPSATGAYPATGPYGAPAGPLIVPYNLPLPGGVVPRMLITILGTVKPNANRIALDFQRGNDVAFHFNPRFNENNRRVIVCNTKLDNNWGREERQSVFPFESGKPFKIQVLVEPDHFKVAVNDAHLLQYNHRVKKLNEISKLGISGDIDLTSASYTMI
Summary of the method: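 Serially diluted compounds compete with biotinylated hGal-3 binding to adsorbed asialofetuin (3 hours, 4° C). After washing, streptavidin-peroxidase at 80 ng/mL for 1 hour at 4° C, with ABTS colour read-out. IC50 values are averaged over repeated runs.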

[3] = Table 5, read-out: IC50 (Gal-3 inhibition)
[4] = Table 10, 2-OMe-Gal inhibitors, read-out: IC50 (Gal-3 inhibition)
[5] = Gal-3 inhibition, binding of biotinylated hGal-3 to ASF, mean values, read-out: IC50
[6] = Table 9, 2-OMe-Gal inhibitors, read-out: IC50 (Gal-3 inhibition)

Chain of human Gal-1 (hGal-1) (P09382 whole entry): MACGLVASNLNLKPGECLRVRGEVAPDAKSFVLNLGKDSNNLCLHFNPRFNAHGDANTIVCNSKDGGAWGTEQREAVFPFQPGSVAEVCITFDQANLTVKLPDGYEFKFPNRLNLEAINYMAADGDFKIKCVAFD

IC50 [1] [nM]	IC50 [2, 3] [nM]	IC50 [2, 4] [nM]	IC50 [2, 5] [nM]	IC50 [2, 6] [nM]	SMILES
20000	160				Cc1nc(C)c(C(S[C@@H]2O[C@H](CO)[C@H](O)[C@H](n3cc(-c4cc(F)c(F)c(F)c4)nn3)[C@H]2O)C2(O)CCOCC2)nc1C (stereo partly drawn) [Example 2.41.119., (2R,3R,4S,5R,6S)-2-(Hydroxymethyl)-6-(((4-hydroxytetrahydro-2H-pyran-4-yl)(3,5,6-trimethylpyrazin-2-yl)methyl)thio)-4-(4-(3,4,5-trifluorophenyl)-1H-1,2,3-triazol-1-yl)tetrahydro-2H-pyran-3,5-diol]
490	60				Cc1nc(C)c([C@@H](S[C@@H]2O[C@H](CO)[C@H](O)[C@H](n3cc(-c4cc(F)c(F)c(F)c4)nn3)[C@H]2O)C2(O)CCOCC2)nc1C [Example 2.41.119R., (2R,3R,4S,5R,6S)-2-(Hydroxymethyl)-6-(((R)-(4-hydroxytetrahydro-2H-pyran-4-yl)(3,5,6-trimethylpyrazin-2-yl)methyl)thio)-4-(4-(3,4,5-trifluorophenyl)-1H-1,2,3-triazol-1-yl)tetrahydro-2H-pyran-3,5-diol]
19900	2990				Cc1nc(C)c([C@H](S[C@@H]2O[C@H](CO)[C@H](O)[C@H](n3cc(-c4cc(F)c(F)c(F)c4)nn3)[C@H]2O)C2(O)CCOCC2)nc1C [Example 2.41.119S., (2R,3R,4S,5R,6S)-2-(Hydroxymethyl)-6-(((S)-(4-hydroxytetrahydro-2H-pyran-4-yl)(3,5,6-trimethylpyrazin-2-yl)methyl)thio)-4-(4-(3,4,5-trifluorophenyl)-1H-1,2,3-triazol-1-yl)tetrahydro-2H-pyran-3,5-diol]
500		190			CO[C@@H]1[C@@H](n2cc(-c3cc(F)c(F)c(F)c3)nn2)[C@@H](O)[C@@H](CO)O[C@H]1S[C@H](c1nocc1C)C1(O)CCOCC1 [Example 2.41.120R.I., (2R,3R,4S,5R,6S)-2-(Hydroxymethyl)-6-(((R)-(4-hydroxytetrahydro-2H-pyran-4-yl)(4-methylisoxazol-3-yl)methyl)thio)-5-methoxy-4-(4-(3,4,5-trifluorophenyl)-1H-1,2,3-triazol-1-yl)tetrahydro-2H-pyran-3-ol]
5700	250				OC[C@H]1O[C@@H](SC(c2ncccc2C(F)(F)F)C2(O)CCOCC2)[C@H](O)[C@@H](n2cc(-c3cc(F)c(F)c(F)c3)nn2)[C@H]1O (stereo partly drawn) [Example 2.41.125., (2R,3R,4S,5R,6S)-2-(Hydroxymethyl)-6-(((4-hydroxytetrahydro-2H-pyran-4-yl)(3-(trifluoromethyl)pyridin-2-yl)methyl)thio)-4-(4-(3,4,5-trifluorophenyl)-1H-1,2,3-triazol-1-yl)tetrahydro-2H-pyran-3,5-diol]
130	30				OC[C@H]1O[C@@H](S[C@H](c2ncccc2C(F)(F)F)C2(O)CCOCC2)[C@H](O)[C@@H](n2cc(-c3cc(F)c(F)c(F)c3)nn2)[C@H]1O [Example 2.41.125R., (2R,3R,4S,5R,6S)-2-(Hydroxymethyl)-6-(((R)-(4-hydroxytetrahydro-2H-pyran-4-yl)(3-(trifluoromethyl)pyridin-2-yl)methyl)thio)-4-(4-(3,4,5-trifluorophenyl)-1H-1,2,3-triazol-1-yl)tetrahydro-2H-pyran-3,5-diol]
7470	1830				OC[C@H]1O[C@@H](S[C@@H](c2ncccc2C(F)(F)F)C2(O)CCOCC2)[C@H](O)[C@@H](n2cc(-c3cc(F)c(F)c(F)c3)nn2)[C@H]1O [Example 2.41.125S., (2R,3R,4S,5R,6S)-2-(Hydroxymethyl)-6-(((S)-(4-hydroxytetrahydro-2H-pyran-4-yl)(3-(trifluoromethyl)pyridin-2-yl)methyl)thio)-4-(4-(3,4,5-trifluorophenyl)-1H-1,2,3-triazol-1-yl)tetrahydro-2H-pyran-3,5-diol]
800			80		Cc1cccnc1C(S[C@@H]1O[C@H](CO)[C@H](O)[C@H](n2cc(-c3cc(F)c(F)c(F)c3)nn2)[C@H]1O)C1(O)CCOCC1 (stereo partly drawn) [Example 2.41.126., (2R,3R,4S,5R,6S)-2-(Hydroxymethyl)-6-(((4-hydroxytetrahydro-2H-pyran-4-yl)(3-methylpyridin-2-yl)methyl)thio)-4-(4-(3,4,5-trifluorophenyl)-1H-1,2,3-triazol-1-yl)tetrahydro-2H-pyran-3,5-diol]
700			30		Cc1cccnc1[C@@H](S[C@@H]1O[C@H](CO)[C@H](O)[C@H](n2cc(-c3cc(F)c(F)c(F)c3)nn2)[C@H]1O)C1(O)CCOCC1 [Example 2.41.126R., (2R,3R,4S,5R,6S)-2-(Hydroxymethyl)-6-(((R)-(4-hydroxytetrahydro-2H-pyran-4-yl)(3-methylpyridin-2-yl)methyl)thio)-4-(4-(3,4,5-trifluorophenyl)-1H-1,2,3-triazol-1-yl)tetrahydro-2H-pyran-3,5-diol]
800				60	CO[C@@H]1[C@@H](n2cc(-c3cc(F)c(F)c(F)c3)nn2)[C@@H](O)[C@@H](CO)O[C@H]1S[C@H](c1ncccc1C)C1(O)CCOCC1 [Example 2.41.126R.I., (2R,3R,4S,5R,6S)-2-(Hydroxymethyl)-6-(((R)-(4-hydroxytetrahydro-2H-pyran-4-yl)(3-methylpyridin-2-yl)methyl)thio)-5-methoxy-4-(4-(3,4,5-trifluorophenyl)-1H-1,2,3-triazol-1-yl)tetrahydro-2H-pyran-3-ol]
70400			2250		Cc1cccnc1[C@H](S[C@@H]1O[C@H](CO)[C@H](O)[C@H](n2cc(-c3cc(F)c(F)c(F)c3)nn2)[C@H]1O)C1(O)CCOCC1 [Example 2.41.126S., (2R,3R,4S,5R,6S)-2-(Hydroxymethyl)-6-(((S)-(4-hydroxytetrahydro-2H-pyran-4-yl)(3-methylpyridin-2-yl)methyl)thio)-4-(4-(3,4,5-trifluorophenyl)-1H-1,2,3-triazol-1-yl)tetrahydro-2H-pyran-3,5-diol]
1900				60	CO[C@@H]1[C@@H](n2cc(-c3cc(F)c(F)c(F)c3)nn2)[C@@H](O)[C@@H](CO)O[C@H]1S[C@H](c1ccccc1C)[C@]1(O)CCOC(C)(C)C1 [Example 2.43.102RS.I., (2R,3R,4S,5R,6S)-6-(((R)-((S)-4-Hydroxy-2,2-dimethyltetrahydro-2H-pyran-4-yl)(o-tolyl)methyl)thio)-2-(hydroxymethyl)-5-methoxy-4-(4-(3,4,5-trifluorophenyl)-1H-1,2,3-triazol-1-yl)tetrahydro-2H-pyran-3-ol]
40	60				CC(C)c1ccccc1[C@@H](S[C@@H]1O[C@H](CO)[C@H](O)[C@H](n2cc(-c3cc(F)c(F)c(F)c3)nn2)[C@H]1O)C1(O)CCC(F)(F)CC1 [Example 2.44.105R., (2S,3R,4S,5R,6R)-2-(((R)-(4,4-Difluoro-1-hydroxycyclohexyl)(2-isopropylphenyl)methyl)thio)-6-(hydroxymethyl)-4-(4-(3,4,5-trifluorophenyl)-1H-1,2,3-triazol-1-yl)tetrahydro-2H-pyran-3,5-diol [1,3-di-deoxy-1-((4,4-difluoro-1-hydroxy-cyclohexan-1-yl)-(2-(-isopropyl)phenyl)methyl-(R)-thio)-3-[4-(3,4,5-trifluorophenyl)-1H-1,2,3-triazol-1-yl]-β-D-galactopyranoside]]
150		320			CO[C@@H]1[C@@H](n2cc(-c3cc(F)c(F)c(F)c3)nn2)[C@@H](O)[C@@H](CO)O[C@H]1S[C@H](c1ccccc1C(C)C)C1(O)CCC(F)(F)CC1 [Example 2.44.105R.I., (2R,3R,4S,5R,6S)-6-(((R)-(4,4-Difluoro-1-hydroxycyclohexyl)(2-isopropylphenyl)methyl)thio)-2-(hydroxymethyl)-5-methoxy-4-(4-(3,4,5-trifluorophenyl)-1H-1,2,3-triazol-1-yl)tetrahydro-2H-pyran-3-ol]
520	950				CC(C)c1ccccc1[C@H](S[C@@H]1O[C@H](CO)[C@H](O)[C@H](n2cc(-c3cc(F)c(F)c(F)c3)nn2)[C@H]1O)C1(O)CCC(F)(F)CC1 [Example 2.44.105S., (2S,3R,4S,5R,6R)-2-(((S)-(4,4-Difluoro-1-hydroxycyclohexyl)(2-isopropylphenyl)methyl)thio)-6-(hydroxymethyl)-4-(4-(3,4,5-trifluorophenyl)-1H-1,2,3-triazol-1-yl)tetrahydro-2H-pyran-3,5-diol]
53300		70500			CO[C@@H]1[C@@H](n2cc(-c3cc(F)c(F)c(F)c3)nn2)[C@@H](O)[C@@H](CO)O[C@H]1S[C@@H](c1ccccc1C(C)C)C1(O)CCC(F)(F)CC1 [Example 2.44.105S.I., (2R,3R,4S,5R,6S)-6-(((S)-(4,4-Difluoro-1-hydroxycyclohexyl)(2-isopropylphenyl)methyl)thio)-2-(hydroxymethyl)-5-methoxy-4-(4-(3,4,5-trifluorophenyl)-1H-1,2,3-triazol-1-yl)tetrahydro-2H-pyran-3-ol]

SMILES	IC50 [1] [nM]	IC50 [2, 3] [nM]	IC50 [2, 4] [nM]	IC50 [2, 5] [nM]	IC50 [2, 6] [nM]
CC(C)c1ccccc1C(S[C@@H]1O[C@H](CO)[C@H](O)[C@H](n2cc(-c3cc(F)c(F)c(F)c3)nn2)[C@H]1O)C1(O)CCC(F)(F)CC1 (stereo partly drawn) [Example 2.44.105., (2S,3R,4S,5R,6R)-2-(((4,4-Difluoro-1-hydroxycyclohexyl)(2-isopropylphenyl)methyl)thio)-6-(hydroxymethyl)-4-(4-(3,4,5-trifluorophenyl)-1H-1,2,3-triazol-1-yl)tetrahydro-2H-pyran-3,5-diol [1,3-di-deoxy-1-((4,4-difluoro-1-hydroxy-cyclohexan-1-yl)-(2-(-isopropyl)phenyl)methyl-thio)-3-[4-(3,4,5-trifluorophenyl)-1H-1,2,3-triazol-1-yl]-β-D-galactopyranoside]]	80	140			
